# Experimental data reported in ChEMBL document CHEMBL1201862, “PubChem BioAssay data set” (2004).
#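 These data come from cells grown in 96-well plates and exposed to compound for 48 hours at five concentrations. GI50 is the concentration that inhibits growth by half.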 Activity calls are given as the source filed them. Rule as the data show it: active = GI50 up to about 1.1 µM and inactive = higher.
# Key:
# Test in all cases: inhibition of tumour cell growth, NCI panel, 48 h
# [1] = system: MOLT-4
# [2] = system: NCI/ADR-RES
# [3] = system: SW-620
# [4] = system: UACC-62
# [5] = system: RPMI-8226
# [6] = system: CAKI-1
# [7] = system: SR
# [8] = system: COLO 205
# [9] = system: LOX IMVI
# [10] = system: HL-60
# [11] = system: NCI-H23
# [12] = system: RXF 393
# [13] = system: EKVX
# [14] = system: Hs-578T
# [15] = system: MDA-MB-231
# [16] = system: SF-539
# [17] = system: OVCAR-4
# [18] = system: SNB-19
# [19] = system: IGROV-1
# [20] = system: 786-0
# [21] = system: UO-31
# [22] = system: SK-MEL-28
# [23] = system: HOP-62
# [24] = system: HOP-92
# [25] = system: A498
# [26] = system: CCRF-CEM
# [27] = system: SF-268
# [28] = system: K562
# [29] = system: OVCAR-8
# [30] = system: HT-29
# [31] = system: Malme-3M
# [32] = system: SK-MEL-5
# [33] = system: HCT-15
# [34] = system: NCI-H226
# [35] = system: SK-OV-3
# [36] = system: NCI-H460
# [37] = system: KM12
# [38] = system: PC-3
# [39] = system: SF-295
# [40] = system: DU-145
# [41] = system: MDA-MB-435
# [42] = system: UACC-257
# [43] = system: SN12C
# [44] = system: NCI-H522
# [45] = system: OVCAR-5
# [46] = system: T47D
# [47] = system: BT-549
# [48] = system: SK-MEL-2
# [49] = system: HCT-116
# [50] = system: ACHN
# [51] = system: OVCAR-3
# [52] = system: TK-10
# [53] = system: M14
# [54] = system: U-251
# [55] = system: MCF7
# [56] = system: A549
# [57] = system: SNB-75
# [58] = system: HCC 2998
smiles,measurement,setting,value
COc1cc2nc(-c3cccs3)oc(=O)c2cc1OC,GI50,[1],> 100 µM (inactive)
same,GI50,[2],51.2 µM (inactive)
same,GI50,[3],> 100 µM (inactive)
same,GI50,[4],> 100 µM (inactive)
same,GI50,[5],> 100 µM (inactive)
same,GI50,[6],> 100 µM (inactive)
same,GI50,[7],> 100 µM (inactive)
same,GI50,[8],> 100 µM (inactive)
same,GI50,[9],> 100 µM (inactive)
same,GI50,[10],> 100 µM (inactive)
same,GI50,[11],97.9 µM (inactive)
same,GI50,[12],> 100 µM (inactive)
same,GI50,[13],> 100 µM (inactive)
same,GI50,[14],72.1 µM (inactive)
same,GI50,[15],74.8 µM (inactive)
same,GI50,[16],57.3 µM (inactive)
same,GI50,[17],> 100 µM (inactive)
same,GI50,[18],47.3 µM (inactive)
same,GI50,[19],> 100 µM (inactive)
same,GI50,[20],94 µM (inactive)
same,GI50,[21],> 100 µM (inactive)
same,GI50,[22],> 100 µM (inactive)
same,GI50,[23],17.6 µM (inactive)
same,GI50,[24],> 100 µM (inactive)
same,GI50,[25],> 100 µM (inactive)
same,GI50,[26],> 100 µM (inactive)
same,GI50,[27],61.7 µM (inactive)
same,GI50,[28],> 100 µM (inactive)
same,GI50,[29],53.1 µM (inactive)
same,GI50,[30],> 100 µM (inactive)
same,GI50,[31],> 100 µM (inactive)
same,GI50,[32],> 100 µM (inactive)
same,GI50,[33],> 100 µM
same,GI50,[34],50.7 µM (inactive)
same,GI50,[35],> 100 µM (inactive)
same,GI50,[36],> 100 µM (inactive)
same,GI50,[37],> 100 µM (inactive)
same,GI50,[38],> 100 µM (inactive)
same,GI50,[39],> 100 µM (inactive)
same,GI50,[40],> 100 µM (inactive)
same,GI50,[41],> 100 µM (inactive)
same,GI50,[42],> 100 µM (inactive)
same,GI50,[43],> 100 µM (inactive)
same,GI50,[44],> 100 µM (inactive)
same,GI50,[45],> 100 µM (inactive)
same,GI50,[46],> 100 µM (inactive)
same,GI50,[47],42 µM (inactive)
same,GI50,[48],> 100 µM (inactive)
same,GI50,[49],86.5 µM (inactive)
same,GI50,[50],> 100 µM (inactive)
same,GI50,[51],> 100 µM (inactive)
same,GI50,[52],> 100 µM (inactive)
same,GI50,[53],> 100 µM (inactive)
same,GI50,[54],38.5 µM (inactive)
same,GI50,[55],> 100 µM (inactive)
same,GI50,[56],> 100 µM (inactive)
same,GI50,[57],> 100 µM (inactive)
COC(=O)[C@H](Cc1ccccc1)NP(=O)(O)OCC1C=CC(n2cc(C)c(=O)[nH]c2=O)O1 (stereo partly drawn),GI50,[1],> 100 µM (inactive)
same,GI50,[2],> 100 µM (inactive)
same,GI50,[3],> 100 µM (inactive)
same,GI50,[4],> 100 µM (inactive)
same,GI50,[5],> 100 µM (inactive)
same,GI50,[6],> 100 µM (inactive)
same,GI50,[8],> 100 µM (inactive)
same,GI50,[9],> 100 µM (inactive)
same,GI50,[10],> 100 µM (inactive)
same,GI50,[11],> 100 µM (inactive)
same,GI50,[12],> 100 µM (inactive)
same,GI50,[13],> 100 µM (inactive)
same,GI50,[14],> 100 µM (inactive)
same,GI50,[15],> 100 µM (inactive)
same,GI50,[17],> 100 µM (inactive)
same,GI50,[18],> 100 µM (inactive)
same,GI50,[19],> 100 µM (inactive)
same,GI50,[20],> 100 µM (inactive)
same,GI50,[21],> 100 µM (inactive)
same,GI50,[23],> 100 µM (inactive)
same,GI50,[24],> 100 µM (inactive)
same,GI50,[26],> 100 µM (inactive)
same,GI50,[27],> 100 µM (inactive)
same,GI50,[28],> 100 µM (inactive)
same,GI50,[29],> 100 µM (inactive)
same,GI50,[30],> 100 µM (inactive)
same,GI50,[31],> 100 µM (inactive)
same,GI50,[32],> 100 µM (inactive)
same,GI50,[33],> 100 µM
same,GI50,[34],> 100 µM (inactive)
same,GI50,[35],> 100 µM (inactive)
same,GI50,[36],> 100 µM (inactive)
same,GI50,[37],> 100 µM (inactive)
same,GI50,[38],> 100 µM (inactive)
same,GI50,[39],> 100 µM (inactive)
same,GI50,[40],> 100 µM (inactive)
same,GI50,[41],> 100 µM (inactive)
same,GI50,[42],> 100 µM (inactive)
same,GI50,[43],> 100 µM (inactive)
same,GI50,[44],> 100 µM (inactive)
same,GI50,[45],> 100 µM (inactive)
same,GI50,[58],> 100 µM (inactive)
same,GI50,[46],> 100 µM (inactive)
same,GI50,[47],> 100 µM (inactive)
same,GI50,[48],> 100 µM (inactive)
same,GI50,[49],> 100 µM (inactive)
same,GI50,[50],26.3 µM (inactive)
same,GI50,[51],> 100 µM (inactive)
same,GI50,[52],> 100 µM (inactive)
same,GI50,[53],> 100 µM (inactive)
same,GI50,[54],> 100 µM (inactive)
same,GI50,[55],> 100 µM (inactive)
same,GI50,[56],> 100 µM (inactive)
same,GI50,[57],> 100 µM (inactive)
CCCNC(=O)OCc1c(COC(=O)NCCC)c(-c2ccc(Cl)c(Cl)c2)n2c1CCC2,GI50,[1],3.11 µM (inactive)
same,GI50,[2],3.89 µM (inactive)
same,GI50,[3],4.63 µM (inactive)
same,GI50,[4],2.8 µM (inactive)
same,GI50,[5],5.02 µM (inactive)
same,GI50,[6],1.72 µM (inactive)
same,GI50,[8],3.64 µM (inactive)
same,GI50,[9],3.78 µM (inactive)
same,GI50,[10],2.64 µM (inactive)
same,GI50,[11],5.93 µM (inactive)
same,GI50,[12],2.35 µM (inactive)
same,GI50,[13],11.2 µM (inactive)
same,GI50,[14],6.56 µM (inactive)
same,GI50,[15],4.84 µM (inactive)
same,GI50,[16],3 µM (inactive)
same,GI50,[18],8.93 µM (inactive)
same,GI50,[19],1.05 µM (active)
same,GI50,[20],2.82 µM (inactive)
same,GI50,[21],2.86 µM (inactive)
same,GI50,[23],6.01 µM (inactive)
same,GI50,[24],2.52 µM (inactive)
same,GI50,[25],1.26 µM (inactive)
same,GI50,[26],1.98 µM (inactive)
same,GI50,[27],4.33 µM (inactive)
same,GI50,[28],4.31 µM (inactive)
same,GI50,[29],4.36 µM (inactive)
same,GI50,[30],4.12 µM (inactive)
same,GI50,[31],2.94 µM (inactive)
same,GI50,[32],5.98 µM (inactive)
same,GI50,[33],4.18 µM
same,GI50,[34],1.58 µM (inactive)
same,GI50,[35],2.81 µM (inactive)
same,GI50,[36],3.57 µM (inactive)
same,GI50,[37],10.7 µM (inactive)
same,GI50,[38],8.59 µM (inactive)
same,GI50,[39],2.95 µM (inactive)
same,GI50,[40],7 µM (inactive)
same,GI50,[41],11.5 µM (inactive)
same,GI50,[42],4.79 µM (inactive)
same,GI50,[43],3.11 µM (inactive)
same,GI50,[44],1.16 µM (inactive)
same,GI50,[45],3.76 µM (inactive)
same,GI50,[46],11.4 µM (inactive)
same,GI50,[47],4.07 µM (inactive)
same,GI50,[49],5.09 µM (inactive)
same,GI50,[50],2.01 µM (inactive)
same,GI50,[51],14 µM (inactive)
same,GI50,[52],1.86 µM (inactive)
same,GI50,[53],10.6 µM (inactive)
same,GI50,[54],4.98 µM (inactive)
same,GI50,[55],5.75 µM (inactive)
same,GI50,[56],6.61 µM (inactive)
